Assay results from ChEMBL document CHEMBL5108087, “Synthesis and biological evaluation of paeoveitol D derivatives as new melatonin receptor agonists with antidepressant activities” (RSC Med Chem, 2022).
pEC50: −log10 of the molar value.

Tests used:
[1] = target: T1, Melatonin receptor type 1B (Homo sapiens, UniProt P49286); assay: Agonist activity at human MT2 receptor expressed in HEK293 cells by Fluo-8 based calcium assay; format: functional, cell-based
T1 sequence (P49286 whole entry): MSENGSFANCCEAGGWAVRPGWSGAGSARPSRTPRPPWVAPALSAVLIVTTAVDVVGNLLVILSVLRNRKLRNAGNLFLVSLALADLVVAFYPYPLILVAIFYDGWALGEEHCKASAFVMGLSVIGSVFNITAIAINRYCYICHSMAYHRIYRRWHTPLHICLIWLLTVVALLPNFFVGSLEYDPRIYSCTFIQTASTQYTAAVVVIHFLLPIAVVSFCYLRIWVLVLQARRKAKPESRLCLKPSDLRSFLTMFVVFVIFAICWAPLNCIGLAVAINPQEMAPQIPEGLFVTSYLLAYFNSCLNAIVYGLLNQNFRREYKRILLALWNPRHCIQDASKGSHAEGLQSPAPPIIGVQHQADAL

[2] = target: Melatonin receptor type 1A (Homo sapiens, UniProt P48039); assay: Agonist activity at human MT1 receptor expressed in HEK293 cells by Fluo-8 based calcium assay; format: functional, cell-based
Sequence of Melatonin receptor type 1A (P48039 whole entry): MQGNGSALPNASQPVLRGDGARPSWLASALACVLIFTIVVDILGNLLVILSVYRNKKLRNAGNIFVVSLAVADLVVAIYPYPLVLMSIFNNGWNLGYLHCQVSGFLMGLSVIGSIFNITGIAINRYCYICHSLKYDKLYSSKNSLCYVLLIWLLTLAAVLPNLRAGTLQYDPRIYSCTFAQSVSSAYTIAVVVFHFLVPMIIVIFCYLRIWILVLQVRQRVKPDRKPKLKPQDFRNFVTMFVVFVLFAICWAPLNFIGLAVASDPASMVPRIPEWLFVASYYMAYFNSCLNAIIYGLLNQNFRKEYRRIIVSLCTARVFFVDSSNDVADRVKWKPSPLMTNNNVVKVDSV

COc1cc2c(CN3CCNCC3)coc2cc1C
pEC50 [1]: 3.42 | pEC50 [2]: 3.34
